The target of experiment [1] is T1, MMP-2 (Homo sapiens, UniProt P08253).
T1 sequence (P08253 110-660): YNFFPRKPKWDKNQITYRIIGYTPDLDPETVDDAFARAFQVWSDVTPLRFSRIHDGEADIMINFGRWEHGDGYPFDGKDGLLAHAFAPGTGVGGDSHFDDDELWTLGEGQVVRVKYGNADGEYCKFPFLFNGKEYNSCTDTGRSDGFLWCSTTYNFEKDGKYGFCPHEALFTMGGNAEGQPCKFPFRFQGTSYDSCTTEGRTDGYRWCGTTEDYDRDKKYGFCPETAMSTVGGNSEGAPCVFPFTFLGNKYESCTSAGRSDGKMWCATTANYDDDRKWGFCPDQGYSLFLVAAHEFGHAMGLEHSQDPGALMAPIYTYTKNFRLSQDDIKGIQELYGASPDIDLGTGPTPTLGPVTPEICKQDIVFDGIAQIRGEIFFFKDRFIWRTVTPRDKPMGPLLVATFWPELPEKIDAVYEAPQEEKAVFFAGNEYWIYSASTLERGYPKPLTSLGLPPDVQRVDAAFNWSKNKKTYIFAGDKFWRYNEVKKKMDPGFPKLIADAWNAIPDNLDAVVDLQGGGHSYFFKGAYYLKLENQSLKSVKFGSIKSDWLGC
The experiment in a line: Inhibition of MMP enzymatic activity, hydrolysis of fluorescent synthetic substrate. It is filed as biochemical. The conditions noted are these: MMP-2, Gélatinase A. The source says:
(§1) On a démontré l'effet d'inhibition d'acides gras selon l'invention vis à vis de différentes métalloprotéinases matricielles. A cet effet, on a déterminé l'activité enzymatique de ces MMPs en utilisant un substrat synthétique fluorescent, le (7- méthoxycoumarine-4-yl) acétyl-Pro-Leu-Gly-Leu-(3-[2,4-dinitrophényl]-L-2,3-diaminopropionyl)-Ala-ArgNH2. Les MMPs peuvent cliver de façon spécifique la liaison amide qui lie les acides aminés Gly et Leu de ce substrat.
(§2) L'hydrolyse s'accompagne d'une augmentation sensible de la fluorescence qui peut être suivie et quantifiée à l'aide d'un spectrofluorimètre aux longueurs d'onde choisies. Suite à la rupture de la liaison Gly-Leu, le groupement dinitrophényl ne peut plus masquer la fluorescence du groupement 7-méthoxycoumarine.
(§3) On a réalisé cette hydrolyse du substrat par la MMP-2 et la MMP-9 en absence ou en présence de différentes concentrations d'acides gras selon l'invention. Les constantes d'inhibition (Ki) de l'activité enzymatique ont pu être ainsi déterminées. Les résultats obtenus figurent dans le Tableau I ci-dessous. Tableau I

Experiment [2] concerns the target T2, MMP-9 (Homo sapiens, UniProt P14780). The experiment is described as above. It is filed as biochemical. The conditions noted are these: MMP-9, Gélatinase B.
Text: as §1, §2, §3
Target sequence in this assay (P14780 94-707): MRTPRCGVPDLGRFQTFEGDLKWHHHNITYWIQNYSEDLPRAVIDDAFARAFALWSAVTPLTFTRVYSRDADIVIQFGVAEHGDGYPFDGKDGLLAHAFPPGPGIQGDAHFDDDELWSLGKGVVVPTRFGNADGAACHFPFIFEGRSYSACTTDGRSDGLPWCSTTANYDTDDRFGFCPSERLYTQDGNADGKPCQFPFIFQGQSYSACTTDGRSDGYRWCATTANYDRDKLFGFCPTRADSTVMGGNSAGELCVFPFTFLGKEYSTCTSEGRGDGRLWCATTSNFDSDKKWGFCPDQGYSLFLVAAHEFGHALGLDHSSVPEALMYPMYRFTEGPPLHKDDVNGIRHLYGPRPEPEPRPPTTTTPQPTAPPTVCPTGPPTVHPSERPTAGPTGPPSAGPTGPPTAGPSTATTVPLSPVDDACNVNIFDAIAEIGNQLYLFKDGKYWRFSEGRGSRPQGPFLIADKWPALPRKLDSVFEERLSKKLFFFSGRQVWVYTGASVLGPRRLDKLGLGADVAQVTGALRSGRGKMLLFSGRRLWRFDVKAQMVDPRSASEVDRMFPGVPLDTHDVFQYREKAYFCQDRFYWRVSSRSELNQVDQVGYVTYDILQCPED

Experiment [3] addresses T1, MMP-2. Kind of experiment: Ex vivo inhibition of enzyme activity on human skin sections: collagen bundle hydrolysis, enzyme pre-incubated with fatty acid. Set-up: L'enzyme sous sa forme activée a été incubée pendant 15 min. It is filed as biochemical, humaine. The conditions noted are these: for hydrolyse des trousseaux collagéniques (observation): MMP-2 pre-incubated with fatty acid; for inhibition at 1 µM / inhibition at 10 µM: hydrolysis of collagen bundles by MMP-2, human skin sections, read-out: % d'inhibition. How it is done:
(§4) Les études ex vivo ont été réalisées sur des coupes de peau humaine issues de prépuces d'enfants âgés de 10 à 24 mois. Les coupes mises en oeuvre étaient des coupes de congélation de 8 µm d'épaisseur, sériées.
(§5) L'effet inhibiteur de l'activité enzymatique a été déterminé de la manière suivante : les enzymes testées étaient les suivantes : MMP-2, MMP-9 ou élastase leucocytaire. L'enzyme sous sa forme activée a été incubée pendant 15 min avec différentes concentrations d'acides gras selon l'invention, puis la solution contenant l'enzyme et l'inhibiteur a été déposée sur la coupe de peau humaine et incubée 4 à 18 heures à 37°C dans une atmosphère humide.
(§6) A la fin de l'incubation, les coupes ont été colorées avec des colorants spécifiques. Le colorant de l'élastine est la + catéchine et celui des collagènes est le rouge sirius.
(§7) Les résultats obtenus ont été déterminés selon le principe de quantification suivant: les fibres élastiques ont été colorées de façon spécifique par la + catéchine, et ont été quantifiées grâce à un système morphométrique précis et automatisé. Les lames ont été observées sous microscope équipé d'une caméra. Les images générées ont été converties en niveaux de gris correspondant aux composants à étudier. Les plus petites particules ne correspondant pas à ces éléments ont été éliminées de l'analyse. Un programme spécifique a permis de calculer ensuite la surface relative occupée par les fibres. Avec les fibres élastiques on a pu calculer l'aire et également le volume occupé par celles-ci, puisque leur longueur est supérieure à leur largeur. L'aire occupée par les trousseaux collagéniques a pu être quantifiée selon la même procédure.
On a étudié l'activité protéolytique de la MMP-2 sur les collagènes. Lorsque la MMP-2 est ajoutée sur les coupes de peau, on a pu observer une hydrolyse des trousseaux collagéniques, ceux-ci étant moins denses et moins nombreux. De plus l'épiderme était décollé. L'hydrolyse était de 34 % environ.

Experiment [4] has as its target T2, MMP-9. The experiment in a line: Ex vivo inhibition of enzyme activity on human skin sections: elastic fibre hydrolysis, enzyme pre-incubated with fatty acid. Format: biochemical, humaine. Set-up: L'enzyme sous sa forme activée a été incubée pendant 15 min. The conditions noted are these: for inhibition at 1 µM / inhibition at 10 µM: hydrolysis of elastic fibres by MMP-9, human skin sections, read-out: % d'inhibition; for inhibition de l'activité de la MMP-9 (observation): MMP-9 pre-incubated with fatty acid, elastic fibres. As to the method: as §4, §5, §6, §7
Dans le cas de la MMP-9, on a étudié l'hydrolyse des fibres élastiques. En effet, à l'inverse de la MMP-2, la MMP-9 possède essentiellement une activité élastinolytique in situ.
Au niveau des fibres élastiques matures du derme moyen, on a observé une hydrolyse par la MMP-9. Les fibres élastiques étaient courtes et en paquets au lieu d'être longues et bien individualisées. L'hydrolyse était de 35 % environ. […] La quantification de l'hydrolyse des fibres élastiques par la MMP-9 en fonction des différents traitements a permis de déterminer le pourcentage d'inhibition de l'activité enzymatique. Les résultats obtenus figurent dans le Tableau III suivant : Tableau III
Target sequence in this assay (P14780 107-707 limits assumed): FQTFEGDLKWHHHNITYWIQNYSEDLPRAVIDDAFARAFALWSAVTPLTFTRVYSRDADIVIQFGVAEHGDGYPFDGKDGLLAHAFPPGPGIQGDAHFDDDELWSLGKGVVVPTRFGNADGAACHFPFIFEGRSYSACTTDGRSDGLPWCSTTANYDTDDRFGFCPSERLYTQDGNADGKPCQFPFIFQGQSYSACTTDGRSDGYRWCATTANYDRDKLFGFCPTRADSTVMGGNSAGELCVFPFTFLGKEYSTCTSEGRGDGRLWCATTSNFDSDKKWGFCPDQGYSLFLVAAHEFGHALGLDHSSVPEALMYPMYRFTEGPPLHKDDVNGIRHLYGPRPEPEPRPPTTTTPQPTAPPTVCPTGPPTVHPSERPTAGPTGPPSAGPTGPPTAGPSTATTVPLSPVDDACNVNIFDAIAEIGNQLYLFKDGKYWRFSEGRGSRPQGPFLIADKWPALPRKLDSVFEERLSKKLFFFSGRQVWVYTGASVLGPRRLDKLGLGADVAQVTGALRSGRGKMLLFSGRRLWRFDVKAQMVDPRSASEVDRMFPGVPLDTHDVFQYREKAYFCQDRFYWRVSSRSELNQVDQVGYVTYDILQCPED

Experiment [5] deals with T1, MMP-2. The experiment in a line: Ex vivo protection of extracellular matrix fibres: skin sections pre-incubated with fatty acid, then enzyme. Also noted: L'enzyme sous sa forme activée a été incubée pendant 15 min. Particulars: then MMP-2; for % de protection: 10 µM. Format: biochemical, humaine.
Text: as §4
(§8) L'effet protecteur de la matrice extra-cellulaire a été déterminé de la façon suivante : les lames portant les coupes de peau ont été incubées sous agitation douce pendant 4 heures dans l'éthanol pur contenant l'acide gras selon l'invention à la concentration désirée. Puis les coupes ont été rincées et séchées. L'enzyme a alors été déposée sur la coupe, la lame a été mise à incuber en atmosphère humide à 37°C pendant 4 à 18 heures. A la fin de l'incubation, les lames ont été colorées avec les colorants spécifiques de l'élastine ou des collagènes mentionnés plus haut.
as §7
Les trousseaux étaient plus denses, plus épais, leurs extrémités étaient moins effilochées, le réseau apparaissait plus dense. […] La quantification des fibres a permis d'obtenir les résultats figurant dans le Tableau IV suivant : Tableau IV

Experiment [6] addresses T2, MMP-9. Described as above. It is filed as biochemical, humaine. Set-up: L'enzyme sous sa forme activée a été incubée pendant 15 min. The conditions noted are these: then MMP-9; for % de protection: 10 µM.
Text: as §4, §8, §7
Les résultats obtenus figurent dans le Tableau V ci-après : Tableau V
Target sequence in this assay (P14780 107-707 limits assumed): as above

Experiment [7] has as its target T3, MMP-1 (Homo sapiens, UniProt P03956).
T3 sequence (P03956 100-469): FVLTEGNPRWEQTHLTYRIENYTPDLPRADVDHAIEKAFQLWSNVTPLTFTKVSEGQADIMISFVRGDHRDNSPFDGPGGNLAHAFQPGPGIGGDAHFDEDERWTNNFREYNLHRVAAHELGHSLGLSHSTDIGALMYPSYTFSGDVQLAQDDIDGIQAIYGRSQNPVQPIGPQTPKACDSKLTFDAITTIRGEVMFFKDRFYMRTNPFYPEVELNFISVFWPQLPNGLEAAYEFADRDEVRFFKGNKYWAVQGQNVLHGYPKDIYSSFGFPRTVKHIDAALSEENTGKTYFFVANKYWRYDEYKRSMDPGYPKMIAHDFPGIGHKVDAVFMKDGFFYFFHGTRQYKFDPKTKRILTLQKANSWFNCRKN
The experiment in a line: Inhibition of MMP enzymatic activity, hydrolysis of fluorescent synthetic substrate. The conditions noted are these: MMP-1, Collagénase intersticielle. It is filed as biochemical.

The target in experiment [8] is MMP-3 (Homo sapiens, UniProt P08254). The experiment is described as above. It is filed as biochemical. The conditions noted are these: MMP-3, Stromélysine-1.
Chain of MMP-3 (P08254 100-477): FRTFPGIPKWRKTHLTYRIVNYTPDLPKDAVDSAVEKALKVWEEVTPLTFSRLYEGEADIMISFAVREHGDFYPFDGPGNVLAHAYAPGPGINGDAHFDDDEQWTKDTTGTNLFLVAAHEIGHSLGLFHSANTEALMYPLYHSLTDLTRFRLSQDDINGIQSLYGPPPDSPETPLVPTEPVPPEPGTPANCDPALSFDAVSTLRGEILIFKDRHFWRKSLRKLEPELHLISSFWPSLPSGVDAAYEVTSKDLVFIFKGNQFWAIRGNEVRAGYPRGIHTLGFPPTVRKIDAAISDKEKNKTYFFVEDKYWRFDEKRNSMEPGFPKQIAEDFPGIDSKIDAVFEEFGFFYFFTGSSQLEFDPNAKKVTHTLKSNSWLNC
Experiment [9] addresses T4, élastase leucocytaire (Homo sapiens, UniProt P08246).
T4 construct: L'enzyme sous sa forme activée a été incubée pendant 15 min
T4 sequence (P08246 30-267): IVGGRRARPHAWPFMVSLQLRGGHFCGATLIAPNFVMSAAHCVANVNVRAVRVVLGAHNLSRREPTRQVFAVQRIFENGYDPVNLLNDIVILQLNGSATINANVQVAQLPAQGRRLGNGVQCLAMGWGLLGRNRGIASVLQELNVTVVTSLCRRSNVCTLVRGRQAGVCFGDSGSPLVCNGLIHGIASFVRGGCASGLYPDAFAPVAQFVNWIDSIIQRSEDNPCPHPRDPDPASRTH
The experiment in a line: Ex vivo protection of elastic fibres: skin sections pre-incubated with fatty acid, then enzyme. Format: biochemical, humaine. The conditions noted are these: section pre-incubated with fatty acid; degradation of elastic fibres by élastase leucocytaire; concentration not given.
Text: as §4, §8
as §7, with “Un programme spécifique a permis de calculer ensuite la surface relative occupée par les fibres. Avec les fibres élastiques on a pu calculer l'aire et également le volume occupé par celles-ci, puisque leur longueur est supérieure à leur largeur.” left out, “procédure. […]” for “procédure.”

In general, Ki refers to the dissociation constant of the complex between target and ligand, obtained from inhibition or displacement. The inhibition is the change of the read-out against control, counted positive when it falls.

On to `CC/C=C/C=C/C=C/C=C/CCCCCCCC(=O)O` [acide trans-parinarique], for which the values for the Ki in [1] and in experiment [2] were 24 µM and 1.9 µM, respectively. In addition, the “hydrolyse des trousseaux collagéniques (observation)” value in [3] (1 µM) was “l'hydrolyse a été diminuée”; in experiment [3] (10 µM), “l'hydrolyse était nettement diminuée”; in experiment [5], “hydrolyse des trousseaux collagéniques nettement moins marquées”. Besides, the inhibition at 1 µM in experiment [3] was found to be 12%; in experiment [4] it was 16%. Further, the inhibition at 10 µM in [3] (10 µM) turned out to be 56%; in experiment [4], 48%. The “inhibition de l'activité de la MMP-9 (observation)” value in experiment [4] is “inhibe l'activité de celle-ci”. In addition, the figures for the “% de protection” value in experiment [5] and in [6] were 61% and 75%, respectively. Besides, the “hydrolyse des fibres élastiques (observation)” value in [6] is on record as “l'hydrolyse des fibres préélastiques du derme superficiel était diminuée”.

As to `CCCCCCCC/C=C/CCCCCCCC(=O)O` [acide élaïdique], the Ki was 2.7 µM in experiment [7], 4.25 µM in experiment [1], 5.8 µM in experiment [2] and 1.8 µM in experiment [8]. Moreover, the “% de protection” value in experiment [5] came out at 32%; in experiment [6], 98%. Moreover, the “hydrolyse des trousseaux collagéniques (observation)” value in [5] is “La même constatation a pu être faite”. Further, in [6], the “hydrolyse des fibres élastiques (observation)” value is listed as “l'hydrolyse des fibres élastiques matures du derme moyen par la MMP-9 était nettement diminuée”.

`CC/C=C/C=C/C=C/C=C\CCCCCCCC(=O)O` [acide cis-parinarique]: the inhibition constant Ki in [1] was determined as 8 µM. Further, the inhibitory constant (Ki) in experiment [2] was 14 µM. This compound came in with a protection in [9] of 58%. Further, in [3], the inhibition at 1 µM is 18%. Moreover, in experiment [3] (10 µM), the “hydrolyse des trousseaux collagéniques (observation)” value is reported as “inhibait moins l'activité enzymatique” and the inhibition at 10 µM worked out at 40%. Moreover, in [4], the inhibition at 1 µM was found to be 10%, the inhibition at 10 µM came out at 24% and the “inhibition de l'activité de la MMP-9 (observation)” value is “Cette inhibition est retrouvée”.

(Values after patent EP0985409A1, “Cosmetic use of fatty acids” (Shiseido International France SA, priority 1998, dated 2000).)
